Measurements: the NIST ThermoML archive (doi:10.1016/j.jct.2015.07.048)

Assay: xn = mol fraction of the nth substance listed
Conditions: 100 kPa, Liquid; for viscosity: Cone and plate viscometry; for electrical conductivity: Direct current cell with electrodes; for mass density: Vibrating tube method

CCCn1cc[n+](C)c1.O=S(=O)([N-]S(=O)(=O)C(F)(F)F)C(F)(F)F + O=C1CCCO1
Conditions | electrical conductivity [S/m] | mass density [kg/m3] | viscosity [mPa·s]
293.15 K, x1 = 0.05 | 1.04 | 1185.12 | –
293.15 K, x1 = 0.0999 | – | 1229.6 | –
293.15 K, x1 = 0.1 | 1.37 | – | 3.42
293.15 K, x1 = 0.15 | 1.45 | – | 4.3
293.15 K, x1 = 0.1999 | 1.37 | 1295.75 | 5.28
293.15 K, x1 = 0.2912 | 1.2 | 1338.94 | –
293.15 K, x1 = 0.2996 | – | – | 8.1
293.15 K, x1 = 0.4005 | 0.89 | 1377.51 | 11.48
293.15 K, x1 = 0.4986 | 0.707 | 1403.93 | 15.9
293.15 K, x1 = 0.6 | 0.595 | 1425.6 | 21.71
293.15 K, x1 = 0.6997 | 0.498 | 1442.85 | 28.23
293.15 K, x1 = 0.7998 | 0.428 | 1457.11 | 35.85
293.15 K, x1 = 0.8818 | 0.387 | 1467.07 | 43.07
293.15 K, x1 = 1 | 0.355 | 1479.32 | 54.19
298.15 K, x1 = 0.05 | 1.13 | 1180.18 | –
298.15 K, x1 = 0.0999 | – | 1224.68 | –
298.15 K, x1 = 0.1 | 1.5 | – | 3.16
298.15 K, x1 = 0.15 | 1.6 | – | 3.94
298.15 K, x1 = 0.1999 | 1.52 | 1290.81 | 4.75
298.15 K, x1 = 0.2912 | 1.38 | 1333.98 | –
298.15 K, x1 = 0.2996 | – | – | 7.17
298.15 K, x1 = 0.4005 | 1.1 | 1372.56 | 9.96
298.15 K, x1 = 0.4986 | 0.87 | 1398.93 | 13.62
298.15 K, x1 = 0.6 | 0.692 | 1420.58 | 18.38
298.15 K, x1 = 0.6997 | 0.604 | 1437.83 | 23.68
298.15 K, x1 = 0.7998 | 0.526 | 1452.07 | 29.72
298.15 K, x1 = 0.8818 | 0.472 | 1462.02 | 35.46
298.15 K, x1 = 1 | 0.435 | 1474.24 | 43.94
303.15 K, x1 = 0.05 | 1.22 | 1175.2 | –
303.15 K, x1 = 0.0999 | – | 1219.69 | –
303.15 K, x1 = 0.1 | 1.63 | – | 2.92
303.15 K, x1 = 0.15 | 1.75 | – | 3.6
303.15 K, x1 = 0.1999 | 1.67 | 1285.84 | 4.3
303.15 K, x1 = 0.2912 | 1.56 | 1329.01 | –
303.15 K, x1 = 0.2996 | – | – | 6.31
303.15 K, x1 = 0.4005 | 1.22 | 1367.63 | 8.69
303.15 K, x1 = 0.4986 | 1.02 | 1394.03 | 11.81
303.15 K, x1 = 0.6 | 0.796 | 1415.71 | 15.67
303.15 K, x1 = 0.6997 | 0.714 | 1432.97 | 19.81
303.15 K, x1 = 0.7998 | 0.629 | 1447.22 | 24.68
303.15 K, x1 = 0.8818 | 0.564 | 1457.17 | 28.84
303.15 K, x1 = 1 | 0.521 | 1469.4 | 35.92
308.15 K, x1 = 0.05 | 1.31 | 1170.18 | –
308.15 K, x1 = 0.0999 | – | 1214.67 | –
308.15 K, x1 = 0.1 | 1.76 | – | 2.68
308.15 K, x1 = 0.15 | 1.9 | – | 3.3
308.15 K, x1 = 0.1999 | 1.85 | 1280.78 | 3.91
308.15 K, x1 = 0.2912 | 1.75 | 1323.97 | –
308.15 K, x1 = 0.2996 | – | – | 5.67
308.15 K, x1 = 0.4005 | 1.44 | 1362.59 | 7.71
308.15 K, x1 = 0.4986 | 1.27 | 1389.01 | 10.31
308.15 K, x1 = 0.6 | 0.992 | 1410.7 | 13.51
308.15 K, x1 = 0.6997 | 0.827 | 1427.98 | 17.13
308.15 K, x1 = 0.7998 | 0.737 | 1442.24 | 21
308.15 K, x1 = 0.8818 | 0.667 | 1452.2 | 24.51
308.15 K, x1 = 1 | 0.611 | 1464.43 | 30
313.15 K, x1 = 0.05 | 1.42 | 1165.15 | –
313.15 K, x1 = 0.0999 | – | 1209.63 | –
313.15 K, x1 = 0.1 | 1.9 | – | 2.49
313.15 K, x1 = 0.15 | 2.06 | – | 3.06
313.15 K, x1 = 0.1999 | 2.02 | 1275.71 | 3.57
313.15 K, x1 = 0.2912 | 1.94 | 1318.9 | –
313.15 K, x1 = 0.2996 | – | – | 5.1
313.15 K, x1 = 0.4005 | 1.64 | 1357.55 | 6.92
313.15 K, x1 = 0.4986 | 1.44 | 1383.98 | 9.13
313.15 K, x1 = 0.6 | 1.15 | 1405.67 | 11.92
313.15 K, x1 = 0.6997 | 1.03 | 1422.96 | 14.78
313.15 K, x1 = 0.7998 | 0.849 | 1437.25 | 17.93
313.15 K, x1 = 0.8818 | 0.789 | 1447.22 | 20.73
313.15 K, x1 = 1 | 0.71 | 1459.44 | 25.32
318.15 K, x1 = 0.05 | 1.52 | 1159.99 | –
318.15 K, x1 = 0.0999 | – | 1204.53 | –
318.15 K, x1 = 0.1 | 2.03 | – | 2.3
318.15 K, x1 = 0.15 | 2.22 | – | 2.8
318.15 K, x1 = 0.1999 | 2.24 | 1270.69 | 3.25
318.15 K, x1 = 0.2912 | 2.13 | 1313.92 | –
318.15 K, x1 = 0.2996 | – | – | 4.6
318.15 K, x1 = 0.4005 | 1.92 | 1352.58 | 6.2
318.15 K, x1 = 0.4986 | 1.68 | 1379.05 | 8.06
318.15 K, x1 = 0.6 | 1.41 | 1400.79 | 10.43
318.15 K, x1 = 0.6997 | 1.21 | 1418.09 | 12.8
318.15 K, x1 = 0.7998 | 0.997 | 1432.4 | 15.49
318.15 K, x1 = 0.8818 | 0.883 | 1442.41 | 17.84
318.15 K, x1 = 1 | 0.813 | 1454.63 | 21.58
323.15 K, x1 = 0.05 | 1.64 | 1154.83 | –
323.15 K, x1 = 0.0999 | – | 1199.33 | –
323.15 K, x1 = 0.1 | 2.17 | – | 2.13
323.15 K, x1 = 0.15 | 2.38 | – | 2.59
323.15 K, x1 = 0.1999 | 2.41 | 1265.59 | 3.01
323.15 K, x1 = 0.2912 | 2.33 | 1308.85 | –
323.15 K, x1 = 0.2996 | – | – | 4.21
323.15 K, x1 = 0.4005 | 2.1 | 1347.55 | 5.59
323.15 K, x1 = 0.4986 | 1.9 | 1374.04 | 7.24
323.15 K, x1 = 0.6 | 1.64 | 1395.82 | 9.27
323.15 K, x1 = 0.6997 | 1.39 | 1413.16 | 11.31
323.15 K, x1 = 0.7998 | 1.15 | 1427.49 | 13.71
323.15 K, x1 = 0.8818 | 1.03 | 1437.5 | 15.72
323.15 K, x1 = 1 | 0.923 | 1449.73 | 18.82
